Laboratory results from patent US11440921B2, “Salts, crystal forms, and production methods thereof” (Sunovion Pharmaceuticals Inc., priority 2018, dated 2022).

Procedure: Approximately 200 mg of selected salts were weighed into clear glass HPLC vials. One milliliter of de-ionized water was added to each vial.

(S)-(4,5-dihydro-7H-thieno[2,3-c]pyran-7-yl)-N-methylmethanamine R-mandelate [(S)-TPMA R-mandelate]
solubility in de-ionized water: freely soluble | USP Descriptor (de-ionized water): Freely Soluble | Final solution PH (de-ionized water, approx. 200 mg salt in 1 mL): 6.2 | Solubility (mgA/mL) (de-ionized water, expressed in terms of free base): >107 mgA/mL
